Data reported in patent publication US10246469B2, “Biaryl kinase inhibitors” (BRISTOL-MYERS SQUIBB COMPANY, priority 2015, dated 2019).

Target: T1, GST-Xa-hAAK1 (Homo sapiens, UniProt Q2M2I8)
T1 construct: GST (N); Factor Xa cleavage site (Xa) (internal); made in house
Test: AAK1 Kinase Assay
Type: biochemical
Conditions: bacterially expressed GST-Xa-hAAK1 3.5 nM; ATP 22 μM; fluoresceinated peptide 1.5 μM; 3 hours at room temperature; Caliper LabChip 3000
Protocol: The assays were performed in U-bottom 384-well plates. The final assay volume was 30 μl prepared from 15 μl additions of enzyme and substrates (fluoresceinated peptide (5-FAM)-Aha-[…]-NH2 and ATP) and test compounds in assay buffer (10 mM Tris-HCL pH 7.4, 10 mM MgCl2, 0.01% Tween-20 and 1.0 mM DTT). The reactions were initiated by the combination of bacterially expressed, GST-Xa-hAAK1 with substrates and test compounds. The reactions were incubated at room temperature for 3 hours and terminated by adding 60 μl of 35 mM EDTA buffer to each sample. The reactions were analyzed on the Caliper LabChip 3000 (Caliper, Hopkinton, Mass.) by electrophoretic separation of the fluorescent substrate and phosphorylated product. […] The final concentration of reagents in the assays are ATP, 22 μM; (5-FAM)-Aha-[…]-NH2, 1.5 μM; GST-Xa-hAAK1, 3.5 nM; and DMSO, 1.6%. […] Compounds were dissolved at 10 mM in dimethylsulfoxide (DMSO) and evaluated at eleven concentrations. IC50 values were derived by non-linear regression analysis.

T1 sequence (Q2M2I8 whole entry): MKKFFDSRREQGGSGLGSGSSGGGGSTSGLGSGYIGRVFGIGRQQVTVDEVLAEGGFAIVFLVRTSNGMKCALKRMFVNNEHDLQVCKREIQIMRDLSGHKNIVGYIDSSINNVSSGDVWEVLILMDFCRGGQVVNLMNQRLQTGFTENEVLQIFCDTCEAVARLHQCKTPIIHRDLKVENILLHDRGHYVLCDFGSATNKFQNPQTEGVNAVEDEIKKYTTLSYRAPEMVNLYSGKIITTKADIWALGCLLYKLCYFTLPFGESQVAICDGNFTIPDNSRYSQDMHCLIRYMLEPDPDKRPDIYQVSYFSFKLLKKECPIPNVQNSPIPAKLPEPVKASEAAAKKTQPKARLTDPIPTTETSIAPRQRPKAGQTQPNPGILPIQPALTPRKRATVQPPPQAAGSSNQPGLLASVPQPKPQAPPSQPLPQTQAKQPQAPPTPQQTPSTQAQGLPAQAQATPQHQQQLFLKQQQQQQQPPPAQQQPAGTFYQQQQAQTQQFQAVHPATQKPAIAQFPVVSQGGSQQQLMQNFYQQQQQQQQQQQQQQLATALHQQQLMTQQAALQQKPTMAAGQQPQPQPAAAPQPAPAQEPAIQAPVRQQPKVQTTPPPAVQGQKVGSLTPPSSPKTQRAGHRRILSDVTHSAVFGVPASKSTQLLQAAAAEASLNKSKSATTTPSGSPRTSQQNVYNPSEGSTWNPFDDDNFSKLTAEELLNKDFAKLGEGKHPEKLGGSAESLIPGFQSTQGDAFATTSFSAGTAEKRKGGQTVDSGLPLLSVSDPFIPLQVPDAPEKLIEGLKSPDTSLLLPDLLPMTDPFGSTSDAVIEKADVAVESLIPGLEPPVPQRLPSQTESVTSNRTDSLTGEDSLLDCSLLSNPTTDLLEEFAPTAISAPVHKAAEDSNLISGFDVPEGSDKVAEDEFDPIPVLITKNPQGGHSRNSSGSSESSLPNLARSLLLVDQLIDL

Row | Structure (SMILES) | IC50 [nM]
1 | Cc1ncccc1C(=O)Nc1cc(-c2ccc(OC[C@@](C)(N)CC(C)C)c(C(F)(F)F)c2)ccn1 [Example 405, (S)—N-(4-(4-((2-amino-2,4-dimethylpentyl)oxy)-3-(trifluoromethyl)phenyl)pyridin-2-yl)-2-methylnicotinamide] | 2
2 | Cc1cc(-c2ccnc3[nH]c(N)nc23)ccc1OC[C@@](C)(N)CC(C)C [Example 259, (S)-7-(4-((2-amino-2,4-dimethylpentyl)oxy)-3-methylphenyl)-3H-imidazo[4,5-b]pyridin-2-amine] | 229
3 | CC(C)C[C@](C)(N)COc1ccc(-c2cc(NC3CCOC3)ncn2)cc1C(F)(F)F (stereo partly drawn) [Example 448, 6-(4-(((S)-2-amino-2,4-dimethylpentyl)oxy)-3-(trifluoromethyl)phenyl)-N-(tetrahydrofuran-3-yl)pyrimidin-4-amine] | 399
4 | CC(C)C[C@](C)(N)COc1ccc(-c2ccnc3c2C(=O)NC3)cc1F [Example 416, (S)-4-(4-((2-amino-2,4-dimethylpentyl)oxy)-3-fluorophenyl)-6,7-dihydro-5H-pyrrolo[3,4-b]pyridin-5-one] | 94
5 | CC(C)C[C@](C)(N)COc1ccc(-c2ccnc3cc(C(F)(F)F)nn23)cc1Cl [Example 336, (S)-1-(2-chloro-4-(2-(trifluoromethyl)pyrazolo[1,5-a]pyrimidin-7-yl)phenoxy)-2,4-dimethylpentan-2-amine] | 15
6 | CC(C)C[C@](C)(N)COc1ccc(-c2cc(NC3CCCOC3)ncn2)cc1C(F)(F)F (stereo partly drawn) [Example 358, 6-(4-(((S)-2-amino-2,4-dimethylpentyl)oxy)-3-(trifluoromethyl)phenyl)-N-(tetrahydro-2H-pyran-3-yl)pyrimidin-4-amine] | 385
7 | CCN1Cc2nccc(-c3ccc(OC[C@@](C)(N)CC(C)C)c(F)c3)c2C1=O [Example 419, (S)-4-(4-((2-amino-2,4-dimethylpentyl)oxy)-3-fluorophenyl)-6-ethyl-6,7-dihydro-5H-pyrrolo [3,4-b]pyridin-5-one] | 1140
8 | Cc1cc(-c2ccnc(Nc3nccs3)n2)ccc1OC[C@@](C)(N)CC(C)C [Example 368, (S)—N-(4-(4-((2-amino-2,4-dimethylpentyl)oxy)-3-methylphenyl)pyrimidin-2-yl)thiazol-2-amine] | 0.3
9 | CC(C)C[C@](C)(N)COc1ccc(-c2ccnc3c2CC(=O)N3)cc1C(F)(F)F [Example 303, (S)-4-(4-((2-amino-2,4-dimethylpentyl)oxy)-3-(trifluoromethyl)phenyl)-1H-pyrrolo[2,3-b]pyridin-2(3H)-one] | 0.6
10 | CC(C)C[C@](C)(N)COc1ccc(-c2ccnc(NC(=O)CC3CCCCCC3)c2)cc1C(F)(F)F [Example 399, (S)—N-(4-(4-((2-amino-2,4-dimethylpentyl)oxy)-3-(trifluoromethyl)phenyl)pyridin-2-yl)-2-cycloheptylacetamide] | 5.9
11 | CC(C)C[C@](C)(N)COc1ccc(-c2ccnc3ccnn23)c2scnc12 [Example 341, (S)-2,4-dimethyl-1-((7-(pyrazolo[1,5-a]pyrimidin-7-yl)benzo[d]thiazol-4-yl)oxy)pentan-2-amine] | 212
12 | Cc1nc(-c2cnn3cc(C#N)cnc23)ccc1OC[C@@](C)(N)CC(C)C [Example 478, (S)-3-(5-((2-amino-2,4-dimethylpentyl)oxy)-6-methylpyridin-2-yl)pyrazolo[1,5-a]pyrimidine-6-carbonitrile] | 11
13 | Cc1cc(-c2ccnc3ccnn23)cnc1OC[C@@](C)(N)CC(C)C [Example 275, (S)-2,4-dimethyl-1-((3-methyl-5-(pyrazolo[1,5-a]pyrimidin-7-yl)pyridin-2-yl)oxy)pentan-2-amine] | 2.2
14 | Cc1nc2c(-c3ccc(OC[C@@](C)(N)CC(C)C)c(C(F)(F)F)c3)ccnc2[nH]1 [Example 291, (S)-2,4-dimethyl-1-(4-(2-methyl-3H-imidazo[4,5-b]pyridin-7-yl)-2-(trifluoromethyl)phenoxy)pentan-2-amine] | 34
15 | CC(C)C[C@](C)(N)COc1ccc(-c2ccnc3cc[nH]c23)cc1F [Example 420, (S)-1-(2-fluoro-4-(1H-pyrrolo[3,2-b]pyridin-7-yl)phenoxy)-2,4-dimethylpentan-2-amine] | 1.1

The remaining lines, values ahead:

Row | IC50 [nM] | Structure (SMILES)
16 | 29 | CCN1Cc2nccc(-c3ccc(OC[C@@](C)(N)CC(C)C)c(C(F)(F)F)c3)c2C1=O [Example 418, (S)-4-(4-((2-amino-2,4-dimethylpentyl)oxy)-3-(trifluoromethyl)phenyl)-6-ethyl-6,7-dihydro-5H-pyrrolo[3,4-b]pyridin-5-one]
17 | 2 | CC(C)C[C@](C)(N)COc1ccc(-c2ccnc(NC(=O)CC3CCCCC3)c2)cc1C(F)(F)F [Example 394, (S)—N-(4-(4-((2-amino-2,4-dimethylpentyl)oxy)-3-(trifluoromethyl)phenyl)pyridin-2-yl)-2-cyclohexylacetamide]
18 | 0.36 | CC(C)C[C@](C)(N)COc1ccc(-c2ccnc(NC(=O)c3nccs3)c2)cc1C#N [Example 261, (S)—N-(4-(4-((2-amino-2,4-dimethylpentyl)oxy)-3-cyanophenyl)pyridin-2-yl)thiazole-2-carboxamide]
19 | 0.5 | CC(C)C[C@](C)(N)COc1ccc(-c2ccnn3ccnc23)cc1C#N [Example 287, (S)-2-((2-amino-2,4-dimethylpentyl)oxy)-5-(imidazo[1,2-b]pyridazin-8-yl)benzonitrile]
20 | 0.47 | CC(C)C[C@](C)(N)COc1ccc(-c2ccnc(NC(=O)c3nccs3)c2)cc1C(F)(F)F [Example 258, (S)—N-(4-(4-((2-amino-2,4-dimethylpentyl)oxy)-3-(trifluoromethyl)phenyl)pyridin-2-yl)thiazole-2-carboxamide]
21 | 1270 | Cc1cc(-c2ccc(OC[C@@](C)(N)CC(C)C)c(Cl)c2)n2nc(C)cc2n1 [Example 459, (S)-1-(2-chloro-4-(2,5-dimethylpyrazolo[1,5-a]pyrimidin-7-yl)phenoxy)-2,4-dimethylpentan-2-amine]
22 | 160 | CC(C)C[C@](C)(N)COc1ccc(-c2cc(N)nc3ccnn23)cc1F [Example 457, (S)-7-(4-((2-amino-2,4-dimethylpentyl)oxy)-3-fluorophenyl)pyrazolo[1,5-a]pyrimidin-5-amine]
23 | 0.5 | CC(C)C[C@](C)(N)COc1ccc(-c2ccnc(NC(=O)C3CCCC3)c2)cc1C(F)(F)F [Example 391, (S)—N-(4-(4-((2-amino-2,4-dimethylpentyl)oxy)-3-(trifluoromethyl)phenyl)pyridin-2-yl)cyclopentanecarboxamide]
24 | 1 | CC(C)C[C@](C)(N)COc1ccc(-c2ccnc(NC(=O)C3CCCO3)c2)cc1C(F)(F)F (stereo partly drawn) [Example 398, N-(4-(4-(((S)-2-amino-2,4-dimethylpentyl)oxy)-3-(trifluoromethyl)phenyl)pyridin-2-yl)tetrahydrofuran-2-carboxamide]
25 | 537 | CC(C)C[C@](C)(N)COc1ccc(-c2ccnc3nccnc23)cc1F [Example 253, (S)-1-(2-fluoro-4-(pyrido[2,3-b]pyrazin-8-yl)phenoxy)-2,4-dimethylpentan-2-amine]
26 | 22 | COCc1nc2c(-c3ccc(OC[C@@](C)(N)CC(C)C)c(C(F)(F)F)c3)ccnc2[nH]1 [Example 295, (S)-1-(4-(2-(methoxymethyl)-3H-imidazo[4,5-b]pyridin-7-yl)-2-(trifluoromethyl)phenoxy)-2,4-dimethylpentan-2-amine]
27 | 39 | Cc1nccc(-c2ccc(OC[C@@](C)(N)CC(C)C)c3ncsc23)n1 [Example 342, (S)-2,4-dimethyl-1-((7-(2-methylpyrimidin-4-yl)benzo[d]thiazol-4-yl)oxy)pentan-2-amine]
28 | 120 | Cc1nc2c(-c3ccc(OC[C@@](C)(N)CC(C)C)c(C)c3)ccnc2[nH]1 [Example 294, (S)-2,4-dimethyl-1-(2-methyl-4-(2-methyl-3H-imidazo[4,5-b]pyridin-7-yl)phenoxy)pentan-2-amine]
29 | 162 | Cc1nccc(-c2ccc(OCC(C)(C)N)c(C)n2)n1 [Example 321, 2-methyl-1-((2-methyl-6-(2-methylpyrimidin-4-yl)pyridin-3-yl)oxy)propan-2-amine]
30 | 0.4 | CC(C)C[C@](C)(N)COc1ccc(-c2ccnn3ccnc23)cc1C(F)(F)F [Example 283, (S)-1-(4-(imidazo[1,2-b]pyridazin-8-yl)-2-(trifluoromethyl)phenoxy)-2,4-dimethylpentan-2-amine]
31 | 52 | Cc1nc(-c2ccc(OC[C@@](C)(N)CC(C)C)c(C(F)(F)F)c2)c2ccsc2n1 [Example 481, (S)-2,4-dimethyl-1-(4-(2-methylthieno[2,3-d]pyrimidin-4-yl)-2-(trifluoromethyl)phenoxy)pentan-2-amine]
32 | 4.1 | Cc1nc2c(-c3ccc(OC[C@@](C)(N)CC(C)C)c(C#N)c3)ncnc2s1 [Example 271, (S)-2-((2-amino-2,4-dimethylpentyl)oxy)-5-(2-methylthiazolo[5,4-d]pyrimidin-7-yl)benzonitrile]
33 | 606 | Cc1cc(-c2ccnn3cc(C(F)(F)F)nc23)cnc1OC[C@](C)(N)CC(C)C [Example 504, (R)-2,4-dimethyl-1-((3-methyl-5-(2-(trifluoromethyl)imidazo[1,2-b]pyridazin-8-yl)pyridin-2-yl)oxy)pentan-2-amine]
34 | 17 | CC(C)C[C@](C)(N)COc1ccc(-c2ccnc(NC3CCCOC3)c2)cc1Cl (single isomer, unassigned) [Example 339]
